Data from ChEMBL document CHEMBL5335835, “Terpenes and Terpenoids Conjugated with BODIPYs: An Overview of Biological and Chemical Properties” (J Nat Prod, 2024).

Molecular target: T1, Alpha-tocopherol transfer protein (Homo sapiens, UniProt P49638)
T1 sequence (P49638 whole entry): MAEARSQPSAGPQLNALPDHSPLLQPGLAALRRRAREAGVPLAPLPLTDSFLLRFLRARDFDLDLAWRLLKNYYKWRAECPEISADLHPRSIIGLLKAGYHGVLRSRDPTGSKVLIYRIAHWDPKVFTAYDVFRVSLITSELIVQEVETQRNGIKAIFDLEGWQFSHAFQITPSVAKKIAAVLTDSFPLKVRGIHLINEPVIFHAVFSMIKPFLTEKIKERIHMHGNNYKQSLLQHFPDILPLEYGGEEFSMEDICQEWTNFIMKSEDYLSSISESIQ
Test: Binding affinity to human alpha-TTP assessed as dissociation constant incubated for 25 to 40 mins by fluorescence based assay

`CC1=CC(C)=[N+]2C1=Cc1ccc(CCCCCCCC[C@]3(C)CCc4c(C)c(O)c(C)c(C)c4O3)n1[B-]2(F)F` was tested, and the Kd was 0.094 µM.
